Patent publication EP0562575B1, “N-substituted-3-(substituted hydrazino)-benzenesulfonamide derivative, preparation process thereof, and herbicidal compositions” (KUREHA KAGAKU KOGYO KABUSHIKI KAISHA, priority 1992, dated 1993)
Where two headings read alike, the source gives them in different places.

Experiments:
Assay type in all cases: in vivo
Amaranthus retroflexus [1] = assay: Test on herbicidal activity by foliar application; conditions: A.r; 50 g/ha foliar spray, 2 - 4 leaf stage, 14 days
Description: (§1) Herbicidal solutions of each test compound, which had been prepared by dissolving at predetermined concentrations such as wettable powder of the test compound as that described in the above formulation example, and sprayed at dosages of 5 g/ha and 50 g/ha over foliar parts of Amaranthus retroflexus, (Redroot pigweed), Bidens pilosa (Common blackjack), Sinapis arvensis (Wild mustard), Stellaria media (Common chickweed), Cassia obtusifolia (Sicklepod), Solanum nigrum (Black nightshade), Abutilon theophrasti (Velvetleaf), Convolvulus arvensis (Field bindweed), Matricaria chamomilla (Wild chamomile), Setaria viridis (Green foxtail), Echinochloa frumentaceum (Barnyard grass), Avena fatua (Wild oat), and Digitaria adscendens (Henry crabgrass) which had been allowed to grow individually to 2 - 4 leaf stage in pots. Fourteen days later after spraying of the test compound, its herbicidal acrivity was evaluated in accordance with the below-described system.
(§2) 0: no effects 1: less than 30% of total kill 2: 31 - 50% of total kill 3: 51 - 70% of total kill 4: 71 - 90% of total kill 5: 91 - 100% of total kill.

Matricaria chamomilla [2] = assay: Test on herbicidal activity by foliar application; conditions: M.c; 50 g/ha foliar spray, 2 - 4 leaf stage, 14 days
Description: as §1, §2

Sinapis arvensis = assay: Test on herbicidal activity by foliar application; conditions: S.a.; 50 g/ha foliar spray, 2 - 4 leaf stage, 14 days
Description: as §1, §2

Cassia obtusifolia = assay: Test on herbicidal activity by foliar application; conditions: C.o.; 50 g/ha foliar spray, 2 - 4 leaf stage, 14 days
Description: as §1, §2

Setaria viridis [3] = assay: Test on herbicidal activity by foliar application; conditions: S.v.; 50 g/ha foliar spray, 2 - 4 leaf stage, 14 days
Description: as §1, §2

Solanum nigrum [4] = assay: Test on herbicidal activity by foliar application; conditions: S.n; 50 g/ha foliar spray, 2 - 4 leaf stage, 14 days
Description: as §1, §2

Bidens pilosa [5] = assay: Test on herbicidal activity by foliar application; conditions: B.p; 50 g/ha foliar spray, 2 - 4 leaf stage, 14 days
Description: as §1, §2

Abutilon theophrasti = assay: Test on herbicidal activity by foliar application; conditions: A.t; 50 g/ha foliar spray, 2 - 4 leaf stage, 14 days
Description: as §1, §2

Digitaria adscendens = assay: Test on herbicidal activity by foliar application; conditions: D.a.; 50 g/ha foliar spray, 2 - 4 leaf stage, 14 days
Description: as §1, §2

Convolvulus arvensis = assay: Test on herbicidal activity by foliar application; conditions: C.a.; 50 g/ha foliar spray, 2 - 4 leaf stage, 14 days
Description: as §1, §2

Avena fatua = assay: Test on herbicidal activity by foliar application; conditions: A.f.; 50 g/ha foliar spray, 2 - 4 leaf stage, 14 days
Description: as §1, §2

Echinochloa frumentaceum = assay: Test on herbicidal activity by foliar application; conditions: E.f.; 50 g/ha foliar spray, 2 - 4 leaf stage, 14 days
Description: as §1, §2

Stellaria media = assay: Test on herbicidal activity by foliar application; conditions: S.m.; 50 g/ha foliar spray, 2 - 4 leaf stage, 14 days
Description: as §1, §2

Wheat = tested on: Wheat; design: key: 0: no inhibition; less than 31%; 2: 31 - 50%; 3: 51 - 70%; 4: 71 - 90%; 5: 91 - 100%; conditions: 1 - to 2 - leaf stage, 21 days
Protocol: (§3) Wheat and the weed were reared from seeds in the planters in a glasshouse. When the young plants had reached the 1 - to 2 - leaf stage, the wettable powders prepared in the same manner as Preparation Example 1 described above were diluted with water to a prescribed concentration and sprayed uniformly to the stalks arid leaves of the plants and on the soil surface in the planters by a spray gun so that the acrive ingredient would be applied at a rate of 5 g/ha and 50 g/ha. Then the planters were kept in the glasshouse. Twenty-one days after said treatment, the herbicidal effect of the compositions on the weeds and phytotoxicity of the crops were observed and evaluated according to the following ratings.

Amaranthus retroflexus [6] = assay: Germination test of seeds (Petri dish); conditions: A.r., seeds in Petri dish, 28 °C, 14 days
Protocol: (§4) Two sheets of filter paper were placed in a superposed relation in each of Petri dishes having a diameter of 9 cm. Water suspensions of each test compound (concentrations of the active ingredient: 0.25 ppm and 2.5 ppm) were separately poured in an amount of 6ml per dish into the Petri dishes. Seeds of Amaranthus retroflexus, (Redroot pigweed), Bidens pilosa (Common blackjack), Matricaria chamomilla (Wild chamomile), Solanum nigrum (Black nightshade), Echinochloa crus-galli(Barnyard grass), Cyperus iria (Rice flatsedge) and Setaria viridis (Green foxtail) were placed at a rate of 10 seeds per dish in the Petri dishes. They were thereafter allowed to germinate in a constant-temperature chamber at 28 °C. Fourteen days later after placement in the Petri dishes, the degrees of germination and growth inhibition were observed visually. The observation results were ranked in accordance with the below-described 6-stage system.

Matricaria chamomilla [7] = assay: Germination test of seeds (Petri dish); conditions: M.c., seeds in Petri dish, 28 °C, 14 days
Protocol: as §4

Cyperus iria = assay: Germination test of seeds (Petri dish); conditions: C.i., seeds in Petri dish, 28 °C, 14 days
Protocol: as §4

Setaria viridis [8] = assay: Germination test of seeds (Petri dish); conditions: S.v., seeds in Petri dish, 28 °C, 14 days
Protocol: as §4

Solanum nigrum [9] = assay: Germination test of seeds (Petri dish); conditions: S.n., seeds in Petri dish, 28 °C, 14 days
Protocol: as §4

Bidens pilosa [10] = assay: Germination test of seeds (Petri dish); conditions: B.p., seeds in Petri dish, 28 °C, 14 days
Protocol: as §4

Echinochloa crus-galli = assay: Germination test of seeds (Petri dish); conditions: E.c., seeds in Petri dish, 28 °C, 14 days
Protocol: as §4

Galium aparine = assay: Test for selective herbicidal effect in post-emergence by treatment of stalks and leaves; conditions: 1 - to 2 - leaf stage, 21 days
Protocol: as §3

## CC=NNc1ccc(C(=O)OC)c(S(=O)(=O)NC(=O)Nc2nc(OC)nc(OC)n2)c1 [Compound I-1]
Amaranthus retroflexus [1]
  Herbicidal activity: 5 (91 - 100% of total kill)
Matricaria chamomilla [2]
  Herbicidal activity: 5 (91 - 100% of total kill)
Sinapis arvensis
  Herbicidal activity: 5 (91 - 100% of total kill)
Cassia obtusifolia
  Herbicidal activity: 5 (91 - 100% of total kill)
Setaria viridis [3]
  Herbicidal activity: 3 (51 - 70% of total kill)
Solanum nigrum [4]
  Herbicidal activity: 5 (91 - 100% of total kill)
Bidens pilosa [5]
  Herbicidal activity: 5 (91 - 100% of total kill)
Abutilon theophrasti
  Herbicidal activity: 5 (91 - 100% of total kill)
Digitaria adscendens
  Herbicidal activity: 4 (71 - 90% of total kill)
Convolvulus arvensis
  Herbicidal activity: 5 (91 - 100% of total kill)
Avena fatua
  Herbicidal activity: 2 (31 - 50% of total kill)
Echinochloa frumentaceum
  Herbicidal activity: 3 (51 - 70% of total kill)
Stellaria media
  Herbicidal activity: 5 (91 - 100% of total kill)
Wheat; 5 g/ha post-emergence spray
  Growth inhibition rate (phytotoxicity of the crops): 0
Wheat; 50 g/ha post-emergence spray
  Growth inhibition rate (phytotoxicity of the crops): 0
Amaranthus retroflexus [6]; 0.25 ppm
  Growth inhibition rate: 3 (51 - 70%)
Amaranthus retroflexus [6]; 2.5 ppm
  Growth inhibition rate: 5 (91 - 100%)
Matricaria chamomilla [7]; 0.25 ppm
  Growth inhibition rate: 2 (31 - 50%)
Matricaria chamomilla [7]; 2.5 ppm
  Growth inhibition rate: 4 (71 - 90%)
Cyperus iria; 0.25 ppm
  Growth inhibition rate: 2 (31 - 50%)
Cyperus iria; 2.5 ppm
  Growth inhibition rate: 4 (71 - 90%)
Setaria viridis [8]; 0.25 ppm
  Growth inhibition rate: 3 (51 - 70%)
Setaria viridis [8]; 2.5 ppm
  Growth inhibition rate: 4 (71 - 90%)
Solanum nigrum [9]; 0.25 ppm
  Growth inhibition rate: 2 (31 - 50%)
Solanum nigrum [9]; 2.5 ppm
  Growth inhibition rate: 3 (51 - 70%)
Bidens pilosa [10]; 0.25 ppm
  Growth inhibition rate: 3 (51 - 70%)
Bidens pilosa [10]; 2.5 ppm
  Growth inhibition rate: 4 (71 - 90%)
Echinochloa crus-galli; 0.25 ppm
  Growth inhibition rate: 2 (31 - 50%)
Echinochloa crus-galli; 2.5 ppm
  Growth inhibition rate: 3 (51 - 70%)
Galium aparine; 5 g/ha post-emergence spray
  Growth inhibition rate (herbicidal effect): 5 (91 - 100%)
Galium aparine; 50 g/ha post-emergence spray
  Growth inhibition rate (herbicidal effect): 5 (91 - 100%)
